Experimental data: ChEMBL document CHEMBL1127059, “Synthesis and antiviral activity of 5'-deoxypyrazofurin” (J Med Chem, 1993)
≈ marks a conversion by molar mass, not a printed value.

Experiments:
HEL [1] = experiment: Tested for inhibitory effect on DNA virus CMV (Davis) in HEL cell line; format: functional, cell-based; conditions: Homo sapiens
HEL [2] = format: functional, cell-based; conditions: Homo sapiens
MT4 [3] = experiment: cells; conditions: Homo sapiens
CCRF-CEM = format: functional, cell-based; conditions: Homo sapiens
ESM [4] = experiment: Tested for inhibitory effect on DNA virus HSV-1(KOS) in ESM cell line; format: functional, cell-based; conditions: Homo sapiens
ESM [5] = experiment: Tested for inhibitory effect on DNA virus HSV-2 (G) in ESM cell line; format: functional, cell-based; conditions: Homo sapiens
ESM [6] = experiment: Tested for inhibitory effect on DNA virus TK-HSV-1 (B2006) in ESM cell line; format: functional, cell-based; conditions: Homo sapiens
ESM [7] = experiment: Tested for inhibitory effect on DNA virus TK-HSV-1(VMW 1837) in ESM cell line; format: functional, cell-based; conditions: Homo sapiens
ESM [8] = experiment: Tested for inhibitory effect on DNA virus VV in ESM cell line; format: functional, cell-based; conditions: Homo sapiens
ESM [9] = format: functional, cell-based; conditions: Homo sapiens
FM3A = format: functional, cell-based; conditions: Mus musculus
HeLa [10] = experiment: Tested for inhibitory effect on RNA virus Polio-1 in HeLa cell line; format: functional, cell-based; conditions: Homo sapiens
HeLa [11] = experiment: Tested for inhibitory effect on RNA virus RSV in HeLa cell line; format: functional, cell-based; conditions: Homo sapiens
HeLa [12] = experiment: Tested for inhibitory effect on RNA virus VSV in HeLa cell line; format: functional, cell-based; conditions: Homo sapiens
HeLa [13] = format: functional, cell-based; conditions: Homo sapiens
L1210 = format: functional, cell-based; conditions: Mus musculus
MDCK [14] = experiment: Tested for inhibitory effect on RNA virus Influenza A in MDCK cell line; format: functional, cell-based; conditions: Canis lupus familiaris
MDCK [15] = experiment: Tested for inhibitory effect on RNA virus Influenza B in MDCK cell line; format: functional, cell-based; conditions: Canis lupus familiaris
MDCK [16] = format: functional, cell-based; conditions: Canis lupus familiaris
MT4 [17] = experiment: Tested for inhibitory effect on RNA virus HIV-1 in MT-4 cell line; format: functional, cell-based; conditions: Homo sapiens
Vero [18] = experiment: Tested for inhibitory effect on RNA virus Coxsackie B4 in Vero cell line; format: functional, cell-based; conditions: Chlorocebus sabaeus
Vero [19] = experiment: Tested for inhibitory effect on RNA virus JV in Vero cell line; format: functional, cell-based; conditions: Chlorocebus sabaeus
Vero [20] = experiment: Tested for inhibitory effect on RNA virus PV-3 in Vero cell line; format: functional, cell-based; conditions: Chlorocebus sabaeus
Vero [21] = experiment: Tested for inhibitory effect on RNA virus Reo-1 in Vero cell line; format: functional, cell-based; conditions: Chlorocebus sabaeus
Vero [22] = experiment: Tested for inhibitory effect on RNA virus SV in Vero cell line; format: functional, cell-based; conditions: Chlorocebus sabaeus
Vero [23] = experiment: Tested for inhibitory effect on RNA virus TV in Vero cell line; format: functional, cell-based; conditions: Chlorocebus sabaeus
Vero [24] = format: functional, cell-based; conditions: Chlorocebus sabaeus
MT4 [25] = experiment: Tested for inhibitory effect on RNA virus HIV-2 in MT-4 cell line; format: functional, cell-based; conditions: Homo sapiens
Vero [26] = experiment: Tested for inhibitory effect on RNA virus SFV in Vero cell line; format: functional, cell-based; conditions: Chlorocebus sabaeus
HEL [27] = experiment: Tested for inhibitory effect on DNA virus CMV (AD-169) in HEL cell line; format: functional, cell-based; conditions: Homo sapiens
HEL [28] = experiment: Tested for inhibitory effect on DNA virus TK-VZV (07/1) in HEL cell line; format: functional, cell-based; conditions: Homo sapiens
HEL [29] = experiment: Tested for inhibitory effect on DNA virus TK-VZV (YS/R) in HEL cell line; format: functional, cell-based; conditions: Homo sapiens
HEL [30] = experiment: Tested for inhibitory effect on DNA virus VZV (Oka) in HEL cell line; format: functional, cell-based; conditions: Homo sapiens
HEL [31] = experiment: Tested for inhibitory effect on DNA virus VZV (YS) in HEL cell line; format: functional, cell-based; conditions: Homo sapiens
Vero [32] = format: functional, cell-based; conditions: Chlorocebus sabaeus; remark: listed apart in the source

| Compound | IC50 (HEL [1]) | IC50 (HEL [2]) | IC50 (MT4 [3]) | IC50 (CCRF-CEM) | IC50 (ESM [4]) | IC50 (ESM [5]) | IC50 (ESM [6]) | IC50 (ESM [7]) | IC50 (ESM [8]) | IC50 (ESM [9]) | IC50 (FM3A) | IC50 (HeLa [10]) | IC50 (HeLa [11]) | IC50 (HeLa [12]) | IC50 (HeLa [13]) | IC50 (L1210) | IC50 (MDCK [14]) | IC50 (MDCK [15]) | IC50 (MDCK [16]) | IC50 (MT4 [17]) | other results |
| --- | --- | --- | --- | --- | --- | --- | --- | --- | --- | --- | --- | --- | --- | --- | --- | --- | --- | --- | --- | --- | --- |
| Nc1nc2c(ncn2COCCO)c(=O)[nH]1 [ACYCLOVIR] | 22 µg/mL (≈ 97.7 µM) | > 200 µg/mL | > 100 µg/mL |  |  |  |  |  |  |  |  |  |  |  |  |  |  |  |  |  |  |
| NC(=O)c1ncn([C@@H]2O[C@H](CO)[C@@H](O)[C@H]2O)n1 [RIBAVIRIN] |  |  | 6.5 µg/mL (≈ 26.6 µM) | 19 µg/mL (≈ 77.8 µM) | ≥ 350 µg/mL | > 300 µg/mL | > 135 µg/mL | 110 µg/mL (≈ 450 µM) | 45 µg/mL (≈ 184 µM) | ≥ 400 µg/mL | 3.9 µg/mL (≈ 16 µM) | 70 µg/mL (≈ 287 µM) | 4 µg/mL (≈ 16.4 µM) | 14 µg/mL (≈ 57.3 µM) | ≥ 400 µg/mL | 7.1 µg/mL (≈ 29.1 µM) | 4 µg/mL (≈ 16.4 µM) | 4 µg/mL (≈ 16.4 µM) | > 200 µg/mL | > 5 µg/mL | IC50 (Vero [18]): 20 µg/mL (≈ 81.9 µM); IC50 (Vero [19]): 5.2 µg/mL (≈ 21.3 µM); IC50 (Vero [20]): 20 µg/mL (≈ 81.9 µM); IC50 (Vero [21]): 160 µg/mL (≈ 655 µM); IC50 (Vero [22]): ≥ 250 µg/mL; IC50 (Vero [23]): 6.4 µg/mL (≈ 26.2 µM); IC50 (Vero [24]): > 400 µg/mL; IC50 (MT4 [25]): > 5 µg/mL; IC50 (Vero [26]): ≥ 235 µg/mL |
| C[C@H]1OC(c2n[nH]c(C(N)=O)c2O)[C@H](O)[C@@H]1O (some centres undefined) | > 40 µg/mL | > 50 µg/mL | 8.8 µg/mL (≈ 36.2 µM) | > 49 µg/mL | ≥ 350 µg/mL | > 300 µg/mL | 55 µg/mL (≈ 226 µM) | 70 µg/mL (≈ 288 µM) | 5.5 µg/mL (≈ 22.6 µM) | ≥ 400 µg/mL | 39 µg/mL (≈ 160 µM) | 55 µg/mL (≈ 226 µM) | 4 µg/mL (≈ 16.4 µM) | 14 µg/mL (≈ 57.6 µM) | ≥ 170 µg/mL | 37 µg/mL (≈ 152 µM) | 20 µg/mL (≈ 82.2 µM) | > 100 µg/mL | 100 µg/mL (≈ 411 µM) | > 4 µg/mL | IC50 (HEL [27]): > 40 µg/mL; IC50 (HEL [28]): > 40 µg/mL; IC50 (HEL [29]): > 40 µg/mL; IC50 (HEL [30]): 40 µg/mL (≈ 164 µM); IC50 (HEL [31]): 22 µg/mL (≈ 90.5 µM); IC50 (Vero [18]): 70 µg/mL (≈ 288 µM); IC50 (Vero [19]): > 40 µg/mL; IC50 (Vero [20]): > 200 µg/mL; IC50 (Vero [21]): > 175 µg/mL; IC50 (Vero [22]): > 200 µg/mL; IC50 (Vero [23]): > 40 µg/mL; IC50 (Vero [32]): > 400 µg/mL; IC50 (MT4 [25]): > 4 µg/mL; IC50 (Vero [26]): > 200 µg/mL |
